Test results reported in patent publication US9255132B2, “Angiopoietin derived peptides” (Compugen Ltd., priority 2008, dated 2016).

What was measured:
[1] = system: avian chorioallantoic membrane (CAM); type: in vivo, Leghorn fertilized eggs; conditions: fumagillin 5 μg/CAM; 48 h
Method: CGEN-G6 [SEQ ID NO: 6], CGEN-F9 [SEQ ID NO: 7], CGEN-F12 [SEQ ID NO: 8], CGEN-C6 [SEQ ID NO: 9], CGEN-A11 [SEQ ID NO: 10], and CGEN-G2 [SEQ ID NO: 11], were analyzed for their ability to affect angiogenesis using the in ovo avian chorioallantoic membrane (CAM) model of angiogenesis, which is widely used as a model to examine compounds affecting angiogenesis (Richardson and Singh 2003, Curr Drug Targets Cardiovasc Haematol Disord., 3(2):155-85). Two positive controls were used: fumagillin as a general anti-angiogenic compound, and Tie2 neutralizing antibody as anti-angiogenic inhibitor of the Ang/Tie2 pathway. Leghorn fertilized eggs were incubated for 4 days at 37° C., when a window was opened on the egg's shell, exposing the CAM. Two different doses of peptides (0.5 and 5 nmol/CAM), Tie-2 neutralizing antibody (R&D Systems, Cat#AF313, 10 μg/ml; 0.4 μg/CAM) or fumagillin (Tocris Bioscience, Cat #1768; 5 μg/CAM) were applied in a 40 μl volume inside an area of 1 cm^2 (restricted by a plastic ring) of the CAM on day 9 of embryo development. The appropriate vehicle controls were also tested. Forty-eight hours after treatment and subsequent incubation at 37° C., CAMs were fixed in situ, excised from the eggs, placed on slides and left to air-dry. Pictures were taken through a stereoscope equipped with a digital camera and the total length of the vessels was measured using image analysis software (NIH Image). For each group a total of 17-24 eggs from three different experiments were used. Data are presented as means±SEM and expressed as % of vehicle control. Statistical analysis (ANOVA followed by Dunnett's post-hoc test) was performed using Graph Pad.
FIG. 6 depict results obtained on vessel length with peptides CGEN-G6 [SEQ ID NO: 6], CGEN-F9 [SEQ ID NO: 7], CGEN-F12 [SEQ ID NO: 8], CGEN-C6 [SEQ ID NO: 9], CGEN-A11 [SEQ ID NO: 10], and CGEN-G2 [SEQ ID NO: 11], compared to Tie2 neutralizing antibody (Ab) and the anti-angiogenic compound fumagillin. Neutralizing Tie2 Ab blocked vessel length by 36%, while the angiogenesis inhibitor fumagillin blocked vessel length by 32%.

[2] = system: co-culture of early passage human endothelial cells with early passage human interstitial cells; test: AngioKit in vitro angiogenesis, total tubule length; type: cell-based; conditions: 14 days, data not shown
[3] = system: oxygen-induced retinopathy (OIR); test: Rodent model of oxygen-induced retinopathy (OIR); type: in vivo, Sprague Dawley rats
Excerpt: In order to assess the in viva efficacy of CGEN-A 11 [SEQ ID NO: 10] in a disease model of angiogenesis, a rodent model of oxygen-induced retinopathy (OIR) was used. Sprague Dawley rats were raised from birth through day PI4 in a variable oxygen atmosphere consisting of 24-hour alternating cycles of 50% and 10% oxygen. Rats were predisposed to pathological retinal angiogenesis as a result of oxygen treatment. Upon removal from the oxygen exposure chamber on day P14, rats received intravitreal injections of CGEN-A11 [SEQ ID NO: 10] in one of two doses: 15 μg/ml (low) or 75 μg/ml (high), 100 μg/ml recombinant rat Tie-2/Fc (R&D Systems, 3874-T2) or 100 μg/ml anti-VEGFR2 (Sigma, V1014) as positive controls, a combination of CGEN-A11 [SEQ ID NO: 10] at 30 μg/ml and anti-VEGFR2 (100 μg/ml), or vehicle (PBS) at a volume of 5 μl. An additional similar intravitreal administration took place 3 days later, on day P17. All pups were sacrificed on day P20. Both normal, intra-retinal vascular growth and abnormal, pre-retinal neovascular growth were assessed at six days post-exposure (P20) in ADPase-stained retinal flat-mounts, using widely published methods (e.g. Penn J S et al., 1991, Invest Ophthalmol Vis Sci. 32(4):1147; MicLeod D S et al., 1987, Microvasc Res. 33:257-269). All assessments were performed by a single, highly trained observer, who was blinded to treatment group. Areas of normal and abnormal vascular growth were measured via computer-assisted image analysis using high-resolution digital images of the stained retinal flat-mounts. The data were subjected to analysis of variance to determine statistical significance and a Dunnett's post hoc test to identify how the various treatment groups compared.
Data are depicted using percent total retinal area vascularized. Sample sizes (10, 11 or 12) are indicated on each bar. […] These differences yielded statistical significance, both at p<0.0001. Statistical significance was calculated using area (mm^2) measurements.
Data are depicted as area vascularized (mm^2). Sample sizes (10, 11 or 12) are indicated on each bar.

For `CO[C@@H]1[C@H](OC(=O)/C=C/C=C/C=C/C=C/C(=O)O)CC[C@]2(CO2)[C@H]1[C@@]1(C)O[C@@H]1CC=C(C)C` [fumagillin, reference compound], the “inhibition of vessel length” value [1] was 32%.

In the case of `Cc1ccc(C(=O)Nc2ccc(S(=O)(=O)O)c3cc(S(=O)(=O)O)cc(S(=O)(=O)O)c23)cc1NC(=O)c1cccc(NC(=O)Nc2cccc(C(=O)Nc3cc(C(=O)Nc4ccc(S(=O)(=O)O)c5cc(S(=O)(=O)O)cc(S(=O)(=O)O)c45)ccc3C)c2)c1` [suramin], the “reduction of tubule length” value ([2]; suramin 20 μM) is reported as 50%.

With VEGF the “induction of tubule length” value ([2]; VEGF 2 ng/mL, pro-angiogenic control) was 130%.

B1: Tie-2/Fc: recombinant rat Tie-2/Fc (R&D Systems, 3874-T2), positive control (protein)
chain: AMDLILINSLPLVSDAETSLTCIASGWRPHEPITIGRDFEALMNQHQDPLEVTQDVTREWAKKVVWKREKASKINGAYFCEGRVRGEAIRIRTMKMRQQASFLPATLTMTVDKGDNVNISFKKVLIKEEDAVIYKNGSFIHSVPRHEVPDILEVHLPHAQPQDAGVYSARYIGGNLFTSAFTRLIVRRCEAQKWGPECNHLCTACMNNGVCHEDTGECICPPGFMGRTCEKACELHTFGRTCKERCSGQEGCKSYVFCLPDPYGCSCATGWKGLQCNEACHPGFYGPDCKLRCSCNNGEMCDRFQGCLCSPGWQGLQCEREGIQRMTPKIVDLPDHIEVNSGKFNPICKASGWPLPTNEEMTLVKPDGTVLHPKDFNHTDHFSVAIFTIHRILPPDSGVWVCSVNTVAGMVEKPFNISVKVLPKPLNAPNVIDTGHNFAVINISSEPYFGDGPIKSKKLLYKPVNHYEAWQHIQVTNEIVTLNYLEPRTEYELCVQLVRRGEGGEGHPGPVRRFTTASIGLPPPRGLNLLPKSQTTLNLTWQPIFPSSEDDFYVEVERRSVQKSDQQNIKVPGNLTSVLLNNLHPREQYVVRARVNTKAQGEWSEDLTAWTLSDILPPQPENIKISNITHSSAVISWTILDGYSISSITIRYKVQGKNEDQHVDVKIKNATITQYQLKGLEPETAYQVDIFAENNIGSSNPAFSHELVTLPESQAPADLGGGK
modifications: left off: a dimerising Fc or GST
notes: recombinant rat Tie-2/Fc (R&D Systems, 3874-T2), positive control
With B1 the “inhibition of pre-retinal neovascular growth (pathological angiogenesis)” value ([3]; Tie-2/Fc intravitreal 100 μg/ml, P20, p=0.0436) was 61.9% and the “intra-retinal normal vascular growth compared to PBS control” value ([3]; intravitreal 100 μg/ml, 5 μl, P14 and P17, assessed P20, p<0.0001) was “statistically significant increase”.
